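Cultured in 96-well plates, cells were exposed to test compound for 48 hours across five concentrations. GI50 = concentration required for 50% inhibition of growth.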 The source made the active and inactive calls. Rule as the data show it: active = GI50 up to about 1.1 µM and inactive = higher.
Legend:
Test in all cases: DTP human tumour cell line panel, 48 h
CAKI-1 = test system: CAKI-1
LOX IMVI = test system: LOX IMVI
MDA-N = test system: MDA-N
NCI-H226 = test system: NCI-H226
NCI-H23 = test system: NCI-H23
NCI/ADR-RES = test system: NCI/ADR-RES
OVCAR-8 = test system: OVCAR-8
RXF 393 = test system: RXF 393
SF-268 = test system: SF-268
SF-295 = test system: SF-295
SK-OV-3 = test system: SK-OV-3
SNB-19 = test system: SNB-19
UACC-257 = test system: UACC-257
UO-31 = test system: UO-31
HT-29 = test system: HT-29
K562 = test system: K562
MDA-MB-435 = test system: MDA-MB-435
MOLT-4 = test system: MOLT-4
SW-620 = test system: SW-620
U-251 = test system: U-251

Measured: GI50

CN(C)c1ccc(/C=N/CC2CCCN3CCCCC23)cc1 (stereo unspecified)
inactive: CAKI-1 > 100 µM | LOX IMVI > 100 µM | MDA-N > 100 µM | NCI-H226 > 100 µM | NCI-H23 > 100 µM | NCI/ADR-RES > 100 µM | OVCAR-8 > 100 µM | RXF 393 47.3 µM | SF-268 > 100 µM | SF-295 > 100 µM | SK-OV-3 > 100 µM | SNB-19 > 100 µM | UACC-257 > 100 µM | UO-31 > 100 µM

FC(F)(F)c1cnc(N/N=C(/c2ccccc2)c2ccccn2)c(Cl)c1
active: HT-29 0.31 µM
inactive: CAKI-1 5.85 µM | K562 4.03 µM | MDA-MB-435 6.87 µM | MDA-N 23.8 µM | MOLT-4 2.67 µM | NCI-H226 13.2 µM | NCI-H23 7.26 µM | NCI/ADR-RES 2.78 µM | OVCAR-8 2.39 µM | RXF 393 12.3 µM | SF-268 4.85 µM | SF-295 3.4 µM | SK-OV-3 4.76 µM | SNB-19 9.33 µM | SW-620 3.02 µM | U-251 4.9 µM | UACC-257 2.49 µM | UO-31 4.94 µM

O=c1[nH]nc(Cc2ccccc2)n1/N=C/c1ccco1
inactive: CAKI-1 > 100 µM | HT-29 > 100 µM | K562 > 100 µM | LOX IMVI > 100 µM | MDA-MB-435 > 100 µM | MOLT-4 99.5 µM | NCI-H226 > 100 µM | NCI-H23 > 100 µM | NCI/ADR-RES > 100 µM | OVCAR-8 > 100 µM | RXF 393 24 µM | SF-268 > 100 µM | SF-295 > 100 µM | SK-OV-3 > 100 µM | SNB-19 > 100 µM | SW-620 > 100 µM | U-251 > 100 µM | UACC-257 > 100 µM | UO-31 > 100 µM

CCOC(=O)Cn1c(=O)c2nc(SC)sc2n(-c2ccccc2)c1=O
inactive: HT-29 > 100 µM | K562 > 100 µM | MDA-N > 100 µM | MOLT-4 > 100 µM | NCI-H226 > 100 µM | NCI-H23 > 100 µM | OVCAR-8 > 100 µM | RXF 393 > 100 µM | SNB-19 > 100 µM | SW-620 > 100 µM | U-251 > 100 µM | UACC-257 > 100 µM | UO-31 > 100 µM

Cc1ccc(S(=O)(=O)OC2C3OC(C)(C)OC3OC2C(c2cc(O)c3c(c2O)C(=O)c2ccccc2C3=O)c2cc(O)c3c(c2O)C(=O)c2ccccc2C3=O)cc1 (stereo unspecified)
inactive: CAKI-1 > 10 µM | HT-29 > 10 µM | K562 > 10 µM | LOX IMVI > 10 µM | MDA-MB-435 > 10 µM | MDA-N > 10 µM | MOLT-4 > 10 µM | NCI-H226 > 10 µM | NCI-H23 > 10 µM | NCI/ADR-RES > 10 µM | OVCAR-8 > 10 µM | SF-268 > 10 µM | SF-295 > 10 µM | SK-OV-3 > 10 µM | SNB-19 > 10 µM | SW-620 > 10 µM | U-251 > 10 µM | UACC-257 > 10 µM | UO-31 > 10 µM

O=C1OC2(CCCCC2)C(Oc2ccc(Cl)cc2)=C1F
inactive: CAKI-1 77.4 µM | HT-29 26.8 µM | K562 30.6 µM | LOX IMVI 27.9 µM | MDA-MB-435 35.6 µM | MDA-N 37.2 µM | MOLT-4 20.3 µM | OVCAR-8 51.9 µM | RXF 393 61.9 µM | SF-268 54 µM | SF-295 45.4 µM | SK-OV-3 > 100 µM | SNB-19 88.7 µM | SW-620 23.6 µM | U-251 61.8 µM | UACC-257 24.3 µM | UO-31 49.5 µM

COc1cc2c(cc1OC)C1c3ccccc3CCCN1CC2 (stereo unspecified)
inactive: CAKI-1 > 100 µM | HT-29 51.2 µM | K562 > 100 µM | LOX IMVI > 100 µM | MDA-MB-435 > 100 µM | MDA-N > 100 µM | MOLT-4 > 100 µM | NCI-H226 > 100 µM | NCI-H23 > 100 µM | NCI/ADR-RES > 100 µM | OVCAR-8 > 100 µM | SF-268 > 100 µM | SF-295 47.6 µM | SK-OV-3 > 100 µM | SNB-19 > 100 µM | SW-620 > 100 µM | U-251 > 100 µM | UACC-257 > 100 µM | UO-31 8.41 µM

COC(=O)c1ccc(C(=O)NC(Cc2ccc(Oc3cc(CC(NC(=O)c4ccccc4C(=O)OC)C(=O)OC)ccc3OC)cc2)C(=O)OC)cc1 (stereo unspecified)
inactive: CAKI-1 > 100 µM | HT-29 > 100 µM | K562 > 100 µM | LOX IMVI > 100 µM | MDA-MB-435 > 100 µM | MDA-N > 100 µM | MOLT-4 > 100 µM | NCI-H226 > 100 µM | NCI-H23 > 100 µM | NCI/ADR-RES > 100 µM | OVCAR-8 86.3 µM | SF-268 > 100 µM | SF-295 43.9 µM | SK-OV-3 67 µM | SNB-19 31.6 µM | SW-620 > 100 µM | UACC-257 > 100 µM | UO-31 > 100 µM

CS(=O)(=O)NC12CCC(c3ccccc31)c1ccccc12
inactive: CAKI-1 > 100 µM | HT-29 > 100 µM | K562 > 100 µM | LOX IMVI > 100 µM | MDA-MB-435 > 100 µM | MDA-N > 100 µM | MOLT-4 > 100 µM | NCI-H226 > 100 µM | NCI-H23 > 100 µM | NCI/ADR-RES > 100 µM | SF-268 > 100 µM | SK-OV-3 > 100 µM | SNB-19 > 100 µM | SW-620 > 100 µM | U-251 > 100 µM | UO-31 > 100 µM

O=[N+]([O-])c1cccc(/N=C2\c3ccccc3CN2c2cccc([N+](=O)[O-])c2)c1
inactive: CAKI-1 > 100 µM | HT-29 > 100 µM | K562 > 100 µM | LOX IMVI > 100 µM | MDA-MB-435 > 100 µM | MDA-N > 100 µM | MOLT-4 > 100 µM | NCI-H226 > 100 µM | NCI-H23 > 100 µM | OVCAR-8 > 100 µM | RXF 393 31.9 µM | SF-268 81.5 µM | SF-295 > 100 µM | SK-OV-3 > 100 µM | SNB-19 > 100 µM | SW-620 > 100 µM | U-251 > 100 µM | UACC-257 > 100 µM | UO-31 > 100 µM

S=C(NN=C1NCCCCN1)Nc1ccccc1
inactive: CAKI-1 > 100 µM | HT-29 23 µM | K562 31.6 µM | LOX IMVI 26.6 µM | MDA-MB-435 39.7 µM | MDA-N 98.4 µM | MOLT-4 25.5 µM | NCI-H226 > 100 µM | NCI-H23 > 100 µM | NCI/ADR-RES > 100 µM | OVCAR-8 36 µM | SF-268 87.3 µM | SF-295 31.5 µM | SK-OV-3 79.8 µM | SNB-19 > 100 µM | U-251 36.3 µM | UACC-257 36 µM | UO-31 34 µM
